Bounds are passed on as bounds.

Here are results for six compounds from patent US7872005B2, “2-substituted heteroaryl compounds” (Synta Pharmaceuticals Corporation, priority 2004, dated 2011).

In this test the test system is IL-12 production in human PBMC or THP-1 cells. Put plainly: In vitro inhibition of IL-12 production in stimulated human PBMC or THP-1 cells (ELISA). The format is cell-based. The conditions noted are these: representative in vitro IC50 data. From the text: The biological activities of a heterocyclic compound can be evaluated by a number of cell-based assays. One of such assays can be conducted using cells from human peripheral blood mononuclear cells (PBMC) or human monocytic cell line (THP-1). The cells are stimulated with a combination of human interferon-γ (IFNγ) and lipopolysaccharide or a combination of IFNγ and Staphylococcus aureus Cowan I in the presence of a test compound. The level of inhibition of IL-12 production can be measured by determining the amount of p70 by using a sandwich ELISA assay with anti-human IL-12 antibodies. IC50 of the test compound can then be determined. Specifically, PBMC or THP-1 cells are incubated with the test compound. Cell viability was assessed using the bioreduction of MTS [3-(4,5-dimethylthiazol-2-yl)-5-(3-carboxymethoxyphenyl)-2-(4-sulfophenyl)-2H-tetrazolium] (Promega, Madison, Wis.).
Reagents. Staphylococcus aureus Cowan I (SAC) was obtained from Calbiochem (La Jolla, Calif.), and lipopolysaccharide (LPS, Serratia marscencens) was obtained from Sigma (St. Louis, Mo.). Human and mouse recombinant IFNγ were purchased from Boehringer Mannheim (Mannheim, Germany) and Pharmingen (San Diego, Calif.), respectively.
Human In Vitro Assay. Human PBMC were isolated by centrifugation using Ficoll-Paque (Pharmacia Biotech, Uppsala, Sweden) and prepared in RPMI medium supplemented with 10% fetal calf serum (FCS), 100 U/mL penicillin, and 100 μg/mL streptomycin. PBMC were plated in wells of a 96-well plate at a concentration of 5×10^5 cells/well, and primed by adding IFNγ (30 U/mL) for 22 h and stimulated by adding LPS (1 μg/mL), or by adding IFNγ (100 U/mL) and then stimulated by adding SAC (0.01%). A test pyrimidine compound was dissolved in DMSO, and added to wells of the 96-well plate. The final DMSO concentration was adjusted to 0.25% in all cultures, including the compound-free control. Human THP-1 cells were plated in wells, primed by adding IFNγ (100 U/mL) for 22 h and stimulated by adding SAC (0.025%) in the presence of different concentrations of the pyrimidine compound. Cell-free supernatants were taken 18 h later for measurement of cytokines. Cell viability was assessed using the bioreduction of MTS. Cell survival was estimated by determining the ratio of the absorbance in compound-treated groups versus compound-free control.
The supernatant was assayed for the amount of IL-12p40, IL-12p70, or IL-10 by using a sandwich ELISA with anti-human antibodies, i.e., a Human IL-12 p40 ELISA kit from R&D Systems (Berkeley, Calif.), and a Human IL-12 p70 or IL-10 ELISA kit from Endogen (Cambridge, Mass.). Assays were based on the manufacturer's instructions.
The biological activities of pyrimidine compounds were tested on human PBMC or THP-1 cells. Unexpectedly, some of the test compounds have IC50 values as low as <1 nM.
For orientation: An ELISA detects its analyte on a solid surface through an enzyme-linked reagent.
For orientation: IC50 means the concentration needed to halve the response being measured. For the compound `Cc1cccc(/C=N/Nc2cc(N3CCOCC3)nc(CCC(C)(C)OC(=O)Nc3cccc(C(F)(F)F)c3)n2)c1` [Compound 27, (3-Trifluoromethyl-phenyl)-carbamic acid 1,1-dimethyl-3-{4-[N′-(3-methyl-benzylidene)-hydrazino]-6-morpholin-4-yl-pyrimidin-2-yl}-propyl ester], the IC50 is greater than 50 nM.
For `Cc1cccc(/C=N/Nc2cc(N3CCOCC3)nc(OCC(C)(C)OC(=O)Nc3cccc(C(F)(F)F)c3)n2)c1` [Compound 28, (3-Trifluoromethyl-phenyl)-carbamic acid 1,1-dimethyl-2-{4-[N′-(3-methyl-benzylidene)-hydrazino]-6-morpholin-4-yl-pyrimidin-2-yloxy}-ethyl ester], the IC50 is less than 25 nM.
The same measure for `Cc1cccc(/C=N/Nc2cc(N3CCOCC3)nc(CC(C)(C)OC(=O)Nc3cccc(C(F)(F)F)c3)n2)c1` [Compound 29, (3-Trifluoromethyl-phenyl)-carbamic acid 1,1-dimethyl-2-{4-[N′-(3-methyl-benzylidene)-hydrazino]-6-morpholin-4-yl-pyrimidin-2-yl}-ethyl ester]: greater than 50 nM; for `Cc1cccc(/C=N/Nc2cc(N3CCOCC3)nc(CC(C)(C)OC(=O)Nc3ccc(C(F)(F)F)cc3)n2)c1` [Compound 30, (4-Trifluoromethyl-phenyl)-carbamic acid 1,1-dimethyl-2-{4-[N′-(3-methyl-benzylidene)-hydrazino]-6-morpholin-4-yl-pyrimidin-2-yl}-ethyl ester]: less than 25 nM; for `Cc1cccc(/C=N/Nc2cc(N3CCOCC3)nc(CCNS(=O)(=O)N(C)C)n2)c1` [Compound 54, 1,1-Dimethyl-3-(2-{4-[N′-(3-methyl-benzylidene)-hydrazino]-6-morpholin-4-yl-pyrimidin-2-yl}-ethyl)-sulfamide]: less than 25 nM.
The same measure for `Cc1cccc(/C=N/Nc2cc(N3CCOCC3)nc(OCCOC(=O)Nc3cccnc3)n2)c1` [Compound 106, Pyridin-3-yl-carbamic acid 2-{4-[N′-(3-methyl-benzylidene)-hydrazino]-6-morpholin-4-yl-pyrimidin-2-yloxy}-ethyl ester]: less than 25 nM.
